Experimental data reported in US8685724B2, “In vitro techniques for use with stem cells” (Kwalata Trading Limited, priority 2004, dated 2014).

Tests used:
[1] = test system: first-pass cells; assay: Enrichment of EPCs from first-pass cells on plasma-coated flasks in the presence of progesterone, flow-cytometry staining; format: cell-based, human; conditions: 0.02-2 microgram/ml progesterone, 5-20% autologous serum, VEGF, Heparin, 3 experiments
Description: Coating T-75 Flasks with Autologous Plasma Example 2 for High % Serum Medium Culturing Collection of Cells for FACS Staining FACS Staining In a set of separate experiments, enrichment of EPCs from first-pass cells was evaluated following in-vitro growth on autologous plasma-coated T-75 Flasks in the presence of medium containing autologous serum, VEGF, progesterone and Heparin. These experiments were conducted with human blood, using the protocol described hereinabove. […] FACS staining results of cells cultured in media containing 5-20% autologous serum (typically 10%), 1, 2, 10, or 20 ng/ml VEGF, 0.02-2 microgram/ml progesterone and 5-25 IU/ml Heparin are summarized. The following surface markers were analyzed: CD45 (a pan-lymphocyte marker), the stem/progenitor cell markers CD34 and CD117, and the EPC/endothelial cell markers CD133 and KDR (VEGF-R).

[2] = test system: first-pass cells; assay: Enrichment of EPCs from first-pass cells on plasma-coated flasks in the presence of 17-β-estradiol, flow-cytometry staining; format: cell-based, human; conditions: 0.002-2 microgram/ml 17-β-Estradiol, 5-20% autologous serum, VEGF, Heparin, 3 experiments
Description: Coating T-75 Flasks with Autologous Plasma Example 3 for High % Serum Medium Culturing Collection of Cells for FACS Staining FACS Staining In a set of separate experiments, enrichment of EPCs from first-pass cells was evaluated following in-vitro growth on autologous plasma-coated T-75 Flasks in the presence of medium containing autologous serum, VEGF, 17-beta-estradiol and Heparin. These were experiments conducted with human blood, using the protocol described hereinabove. […] FACS staining results of cells cultured in media containing 5-20% autologous serum (typically 10%), 1, 2, 10, or 20 ng/ml VEGF, 0.002-2 microgram/ml 17-β-Estradiol and 5-25 IU/ml Heparin are summarized. The following surface markers were analyzed: CD45 (a pan-lymphocyte marker), the stem/progenitor cell markers CD34 and CD117, and the EPC/endothelial cell markers CD133, and KDR (VEGF-R).

SMILES: CC(=O)[C@H]1CC[C@H]2[C@@H]3CCC4=CC(=O)CC[C@]4(C)[C@H]3CC[C@]12C [progesterone]
- CD34 AVG percentage staining [1]: 21.22%
- CD45 AVG percentage staining [1]: 94.82%
- CD117 AVG percentage staining [1]: 5.54%
- CD133 AVG percentage staining [1]: 5.72%
- KDR AVG percentage staining [1]: 1.05%

SMILES: C[C@]12CC[C@@H]3c4ccc(O)cc4CC[C@H]3[C@@H]1CC[C@@H]2O [17-β-estradiol]
- CD34 average percentage staining [2]: 4.12%
- CD45 average percentage staining [2]: 96.14%
- CD117 average percentage staining [2]: 1.41%
- CD133 average percentage staining [2]: 1.77%
- KDR average percentage staining [2]: 0.28%
